Assay results: the supplement of paper PMC10307832

Assays:
Test in all cases: relative viability (nuclei count vs DMSO), 5 days (fraction); higher = more cells survive
HARA = tested on: HARA
Summary of the method: (§1)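 Relative viability equals treated-well nuclei counts divided by vehicle-well nuclei counts. Counts came from 4× images of lung cancer cell lines grown in 1536-well plates for 5 days after pin-tool dosing on the day after seeding. Dosing used one drug alone or a fixed anchor-drug dose plus five library-drug doses (not always all listed) in √10 steps, and values are medians of duplicate plates.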

NCI-H441 = tested on: NCI-H441
Summary of the method: as §1

NCI-H1650 = tested on: NCI-H1650
Summary of the method: as §1

201T = tested on: 201T
Summary of the method: as §1

NCI-H358 = tested on: NCI-H358
Summary of the method: as §1

BEN = tested on: BEN
Summary of the method: as §1

HCC-15 = tested on: HCC-15
Summary of the method: as §1

NCI-H23 = tested on: NCI-H23
Summary of the method: as §1

NCI-H1975 = tested on: NCI-H1975
Summary of the method: as §1

NCI-H1792 = tested on: NCI-H1792
Summary of the method: as §1

COR-L23 = tested on: COR-L23
Summary of the method: as §1

SK-MES-1 = tested on: SK-MES-1
Summary of the method: as §1

NCI-H1437 = tested on: NCI-H1437
Summary of the method: as §1

EKVX = tested on: EKVX
Summary of the method: as §1

NCI-H1666 = tested on: NCI-H1666
Summary of the method: as §1

NCI-H650 = tested on: NCI-H650
Summary of the method: as §1

NCI-H596 = tested on: NCI-H596
Summary of the method: as §1

HCC-44 = tested on: HCC-44
Summary of the method: as §1

A-427 = tested on: A-427
Summary of the method: as §1

NCI-H838 = tested on: NCI-H838
Summary of the method: as §1

HCC-827 = tested on: HCC-827
Summary of the method: as §1

`O=c1cc(-c2cccc3c2Sc2ccccc2S3)oc(N2CCOCC2)c1` + C[C@@H](Oc1cc(-c2cnn(C3CCNCC3)c2)cnc1N)c1c(Cl)ccc(F)c1Cl [Crizotinib] (partner 1 µM) was tested, and the relative viability (HARA; first compound 0.08 µM) was 0.971, the relative viability (HARA; first compound 0.253 µM) was 1.12 and the relative viability (HARA; first compound 0.8 µM) was 1. It also gave a relative viability (HARA; first compound 2.53 µM) of 1.05, a relative viability (HARA; first compound 8 µM) of 1.28 and a relative viability (NCI-H441; first compound 0.08 µM) of 0.697. For the same molecule, the relative viability (NCI-H441; first compound 0.253 µM) was 1.28, the relative viability (NCI-H441; first compound 0.8 µM) was 0.779 and the relative viability (NCI-H441; first compound 2.53 µM) was 0.807. The relative viability (NCI-H441; first compound 8 µM) was 1, the relative viability (NCI-H1650; first compound 0.08 µM) was 0.998 and the relative viability (NCI-H1650; first compound 0.253 µM) was 0.956. It also gave a relative viability (NCI-H1650; first compound 0.8 µM) of 0.945, a relative viability (NCI-H1650; first compound 2.53 µM) of 0.963 and a relative viability (NCI-H1650; first compound 8 µM) of 1.35. It also gave a relative viability (201T; first compound 0.08 µM) of 1, a relative viability (201T; first compound 0.253 µM) of 0.889 and a relative viability (201T; first compound 0.8 µM) of 1. The relative viability (201T; first compound 2.53 µM) was 1.08, the relative viability (201T; first compound 8 µM) was 0.958 and the relative viability (NCI-H358; first compound 0.08 µM) was 0.629. For the same molecule, the relative viability (NCI-H358; first compound 0.253 µM) was 0.634, the relative viability (NCI-H358; first compound 0.8 µM) was 0.657 and the relative viability (NCI-H358; first compound 2.53 µM) was 0.466. The relative viability (NCI-H358; first compound 8 µM) was 0.574, the relative viability (BEN; first compound 0.08 µM) was 0.925 and the relative viability (BEN; first compound 0.253 µM) was 1.02. The relative viability (BEN; first compound 0.8 µM) was 1.1, the relative viability (BEN; first compound 2.53 µM) was 0.85 and the relative viability (BEN; first compound 8 µM) was 1.14. It also gave a relative viability (HCC-15; first compound 0.08 µM) of 0.952, a relative viability (HCC-15; first compound 0.253 µM) of 0.934 and a relative viability (HCC-15; first compound 0.8 µM) of 1.01. The relative viability (HCC-15; first compound 2.53 µM) was 0.857, the relative viability (HCC-15; first compound 8 µM) was 0.827 and the relative viability (NCI-H23; first compound 0.08 µM) was 0.442. The relative viability (NCI-H23; first compound 0.253 µM) was 0.564, the relative viability (NCI-H23; first compound 0.8 µM) was 0.626 and the relative viability (NCI-H23; first compound 2.53 µM) was 0.572. The relative viability (NCI-H23; first compound 8 µM) was 0.522, the relative viability (NCI-H1975; first compound 0.08 µM) was 1.01 and the relative viability (NCI-H1975; first compound 0.253 µM) was 1.02. It also gave a relative viability (NCI-H1975; first compound 0.8 µM) of 0.922, a relative viability (NCI-H1975; first compound 2.53 µM) of 0.837 and a relative viability (NCI-H1975; first compound 8 µM) of 0.98. The relative viability (NCI-H1792; first compound 0.253 µM) was 1.64, the relative viability (NCI-H1792; first compound 0.8 µM) was 0.987 and the relative viability (NCI-H1792; first compound 2.53 µM) was 0.896. For the same molecule, the relative viability (NCI-H1792; first compound 8 µM) was 1.19, the relative viability (COR-L23; first compound 0.08 µM) was 0.744 and the relative viability (COR-L23; first compound 0.253 µM) was 0.876. It also gave a relative viability (COR-L23; first compound 0.8 µM) of 0.792, a relative viability (COR-L23; first compound 2.53 µM) of 0.737 and a relative viability (COR-L23; first compound 8 µM) of 0.616. It also gave a relative viability (SK-MES-1; first compound 0.08 µM) of 1.03, a relative viability (SK-MES-1; first compound 0.253 µM) of 0.949 and a relative viability (SK-MES-1; first compound 0.8 µM) of 0.937. The relative viability (SK-MES-1; first compound 2.53 µM) was 0.925, the relative viability (SK-MES-1; first compound 8 µM) was 1.02 and the relative viability (NCI-H1437; first compound 0.08 µM) was 1.09. It also gave a relative viability (NCI-H1437; first compound 0.253 µM) of 1.18, a relative viability (NCI-H1437; first compound 0.8 µM) of 1.24 and a relative viability (NCI-H1437; first compound 2.53 µM) of 0.899. The relative viability (NCI-H1437; first compound 8 µM) was 1.07, the relative viability (EKVX; first compound 0.08 µM) was 0.896 and the relative viability (EKVX; first compound 0.253 µM) was 1.1. The relative viability (EKVX; first compound 0.8 µM) was 0.971, the relative viability (EKVX; first compound 2.53 µM) was 1.04 and the relative viability (EKVX; first compound 8 µM) was 1.04. It also gave a relative viability (NCI-H1666; first compound 0.08 µM) of 0.911, a relative viability (NCI-H1666; first compound 0.253 µM) of 1.04 and a relative viability (NCI-H1666; first compound 0.8 µM) of 0.922. It also gave a relative viability (NCI-H1666; first compound 2.53 µM) of 0.916, a relative viability (NCI-H1666; first compound 8 µM) of 0.857 and a relative viability (NCI-H650; first compound 0.08 µM) of 0.702. The relative viability (NCI-H650; first compound 0.253 µM) was 0.606, the relative viability (NCI-H650; first compound 0.8 µM) was 0.74 and the relative viability (NCI-H650; first compound 2.53 µM) was 0.58. For the same molecule, the relative viability (NCI-H650; first compound 8 µM) was 0.694, the relative viability (NCI-H596; first compound 0.08 µM) was 0.96 and the relative viability (NCI-H596; first compound 0.253 µM) was 1.08. The relative viability (NCI-H596; first compound 0.8 µM) was 0.982, the relative viability (NCI-H596; first compound 2.53 µM) was 0.891 and the relative viability (NCI-H596; first compound 8 µM) was 0.806. The relative viability (HCC-44; first compound 0.08 µM) was 0.811, the relative viability (HCC-44; first compound 0.253 µM) was 0.886 and the relative viability (HCC-44; first compound 0.8 µM) was 0.83. It also gave a relative viability (HCC-44; first compound 2.53 µM) of 0.859, a relative viability (HCC-44; first compound 8 µM) of 0.854 and a relative viability (A-427; first compound 0.08 µM) of 0.988. The relative viability (A-427; first compound 0.253 µM) was 0.661, the relative viability (A-427; first compound 0.8 µM) was 1.02 and the relative viability (A-427; first compound 2.53 µM) was 0.86. For the same molecule, the relative viability (A-427; first compound 8 µM) was 0.791, the relative viability (NCI-H838; first compound 0.08 µM) was 0.883 and the relative viability (NCI-H838; first compound 0.253 µM) was 0.988. For the same molecule, the relative viability (NCI-H838; first compound 0.8 µM) was 0.82, the relative viability (NCI-H838; first compound 2.53 µM) was 0.794 and the relative viability (NCI-H838; first compound 8 µM) was 0.816. The relative viability (HCC-827; first compound 0.08 µM) was 0.943, the relative viability (HCC-827; first compound 0.253 µM) was 0.921 and the relative viability (HCC-827; first compound 0.8 µM) was 0.997. For the same molecule, the relative viability (HCC-827; first compound 2.53 µM) was 0.8 and the relative viability (HCC-827; first compound 8 µM) was 0.967.
